Test results taken from patent US4906468A, “Insulin activity messengers, their antibodies, and thereof” (priority 1986, dated 1990).

How the values were obtained:
[1] = test system: low Km cAMP phosphodiesterase (PDE) from rat adipocyte particulate fraction; experiment: Generation of PDE messenger from liver membranes; extracts assayed for modulation of cAMP phosphodiesterase; type: biochemical
Description: These were generated from bovine liver particulate fractions by a modification of previously described methods. Particulate fraction was prepared from 100 g of bovine liver, and suspended in […] ammonium bicarbonate, pH 7.4. (Buffer A) at a final concentration of 2-4 mg protein/ml. This solution was incubated with 10 mM for 10 min at 37° C., acidified to pH 4.0 with formic acid and sedimented at 45,000 g for 20 min. An equal volume of chloroform/methanol (2:1) was added to the supernatant, and the upper phase was aspirated and methanol was evaporated.
In the tests the results of which are tabulated above, liver membranes were treated as indicated for 10 min at 37° C., centrifuged and supernatants were extracted and purified up to and including the Dowex 50WX-4 step as described earlier herein under "Experimental Procedures". Partially purified extracts were assayed for ability to modulate cAMP phosphodiesterase. Basal activity was 56.2 pmoles/mg protein^-1 -min^-1.

[2] = test system: pyruvate dehydrogenase; experiment: Production of pyruvate dehydrogenase modulating activity in crude extracts of plasma membrane derived supernatants; type: biochemical
[3] = test system: BC3 Hl cells; experiment: Incorporation of radiolabel into water soluble products (SAX HPLC Peaks I and II), insulin treated cells; type: cell-based, murine; conditions: 10 nM insulin
Description: BC3 Hl cells were cultured at 37° C. in Dubelco's Minimal Essential Medium in the presence of 20% NU serum (Collaborative Research) on collagen coated 10 mm miniwells. Cells (1×10^6 /well) were preincubated with 10 μCi A) [2,6^3 H]myoinositol or B) [1,6^3 H]glucosamine (New England Nuclear) for 20 hours in the presence of 20% Nu Serum. Insulin was added to cells in monolayer in serum free media at a final concentration of 10 nM. Reactions were terminated by removal of media and addition of 1 ml chloroform/methanol/IN HCl (200:100:1), followed by addition of 0.5 ml 10 mM formic acid. Organic and aqueous phases were separated by centrifugation at 500×g for 5 min.
The water soluble labeled products were purified by a modification of a previously described protocol for purification of cAMP phosphodiesterase (PDE) modulators. The aqueous phases were chromatographed on DEAE-Cellulose, eluted with 0.25 TEA-formate, pH 3.75. This fraction was eluted through a C-18 reversed phase sepak in the same buffer. Following lyophilization, the solution was eluted through Dowex 50WX-4 in 50 mM TEA-formate. pH 3.0. […] One ml fractions were counted. The two peaks of insulin stimulated radioactivity coeluted with similarly purified, myocyte derived PDE modulating activities. […]

[4] = test system: glycolipid precursor in BC3 Hl cells; experiment: Radiolabel in glycolipid precursor (TLC), insulin treated cells; type: cell-based, murine
Description: (A) [^3 H]inositol and (B) [^3 H]glucosamine labeled cells were treated with or without 10 nM insulin. Following extraction and phase separation, the organic phase were dried under N2, resuspended in chloroform/methanol/H2 O (9:7:2); and spotted on oxalate impregnated Silica gel G plates. These were twice developed in chloroform/acetone/methanol/glacial acetic acid/H2 O (10:4:2:2:1). One cm regions were scraped and radioactivity determined by scintillation counting. Phosphoinositides were identified by iodine staining of standards.
Cells prelabeled with [^3 H]inositol were treated with 10 nM insulin for the designated intervals. Cells were extracted and phase separated as detailed in FIG. 7. Aqueous phases were chromatographed up to and including the SAX HPLC step (upper panel). Results reflect counts from a combination of Peaks I and II. The ratio of counts in these peaks were unchanged over the time course. The precursor residing in the organic phases was identified by the peak on TLC with an Rf =0.22, corresponding to the species depleted by PI-PLC (FIG. 10).

[5] = test system: diacylglycerol in BC3 Hl myocytes; experiment: Diacylglycerol production, [^3 H]myristic acid labeled myocytes; type: cell-based, murine; conditions: insulin
Description: (§1) Myocytes were incubated for 20 hrs. in serum free DMEM with [9,10^3 H] myristic acid (New England Nuclear), complexed 1:1 to bovine serum albumin. Insulin was added to cells in fresh media for the designated intervals, and reactions were stopped by removal of media and addition of 1 ml chloroform/methanol/IN HCl (200:100:1). 0.6 ml H2 O was added and upper aqueous phases were discarded following centrifugation at 500×g for 5 minutes. The lower, organic phases were dried under N2 and resuspended in 1 ml diethyl ether followed by addition of 1 […]. The upper ether phase was aspirated and the lower phase reextracted with 1 ml diethyl ether. The combined ether phases, containing diacylglycerol, were dried under N2, resuspended in chloroform and spotted on silica gel G plates which were preactivated at 60° C. for 1 hr. Plates were twice developed in petroleum ether/diethyl ether/glacia acetic acid (70:30:2). […] Lipids were scraped and radioactivity determined in a liquid scintillation counter.
(§2) The phosphodiesteratic cleavage of a phospolipid by insulin should also be reflected by increased production of diacylglycerol, which could serve as substrate for a diglyceride kinase, producing phosphatidic acid. Myocytes were preincubated with [^3 H]myristic acid and both diacylglycerol and phosphatidic acid labeling were evaluated by thin layer chromatography (FIG. 6).

[6] = test system: phosphatidic acid in BC3 Hl myocytes; experiment: Phosphatidic acid production, [^3 H]myristic acid labeled myocytes; type: cell-based, murine; conditions: insulin, by 5 minutes
Description: as §1, §2

[7] = test system: polyphosphoinositides; conditions: cited from earlier work

Insulin: Monocomponent bovine insulin from Wellcome Laboratores
stimulation of PDE modulating activity / increase in production of messengers from membranes ([1]; after partial purification): 4 fold | PDE Activity ([1]; extracts of liver membranes treated 10 min at 37° C., 1.0 nM insulin, 1.0 μg/ml PI-PLC, basal 56.2): 138.0 pmol mg protein^-1 min^-1 | production of pyruvate dehydrogenase modulating activity [2]: enhanced | incorporation of [^3 H]inositol into two peaks (I and II) [3]: increased the incorporation of [^3 H]inositol into two peaks | percent of maximal effect on production of [^3 H]inositol containing products ([3]; 30 sec, Peaks I and II combined): Seventy | time course of [^3 H]inositol incorporation into the precursor ([4]; 10 nM insulin): biphasic | decrease in [^3 H]inositol counts in precursor ([4]; 10 nM insulin, 30 sec): 20% | increase in [^3 H]inositol radioactivity in precursor over control levels ([4]; 10 nM insulin, after 30 sec): 60% | time of hydrolysis of the putative glycolipid precursor and appearance of the products ([4]; insulin dependent): less than 1 min | increase in incorporation of [^3 H]glucosamine in precursor peak ([4]; insulin, 10 min): approximately 40% | increase in incorporation of [^3 H]inositol in precursor peak ([4]; insulin, 10 min): approximately 40% | labeling of other lipids ([4]; insulin, 10 min): no significant change | radioactivity in precursor ([4]; intact cells): rapidly diminished | maximal increase in labeled diacylglycerol over basal ([5]; by 5-10 minutes): 50% | labeled diacylglycerol level ([5]; by 2 minutes): near basal levels | increase in levels of [^3 H]myristate phosphatidic acid [6]: 2 fold | hydrolysis of polyphosphoinositides [7]: does not stimulate hydrolysis of polyphosphoinositides
